Where “and” joins values, the source holds several entries; their conditions need not be identical. Identical values can stand only once. Like-named read-outs stand apart in the source and are kept apart here.
How the values were obtained:
HEK293T cells = assay: Drug sensitivity assay (CellTiter-Glo viability) with or without MLN4924 pretreatment; assay type: cell-based, human; conditions: Supplementary Table 2
Summary of the method: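 HEK293T–Cas9 cells at 0.15 × 10^6 ml^−1 were treated with DMSO or 100 nM MLN4924 before plating. Test drugs were added 2 h later and exposure lasted 3 days. Viability was read by CellTiter-Glo luminescence and expressed relative to DMSO controls.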

cyclin K = assay: Label-free quantitative mass spectrometry in MDA-MB-231 cells, cyclin K; assay type: cell-based, human
Protocol: (§1) MDA-MB-231 cells were treated with DMSO or a cyclin K degrader compound at 1 µM for 5 h. Cells were collected by centrifugation and washed with phosphate-buffered saline before snap freezing in liquid nitrogen. Cells were lysed by addition of lysis buffer (8 M urea, 50 mM NaCl, 50 mM 4-(2-hydroxyethyl)-1-piperazineethanesulfonic acid (EPPS) pH 8.5, and protease and phosphatase inhibitors) and homogenization by bead beating (BioSpec) for three repeats of 30 s at 2,400 rpm. Bradford assay was used to determine the final protein concentration in the clarified cell lysate. Then 50 µg of protein for each sample was reduced, alkylated and precipitated using methanol/chloroform as previously described, and the resulting washed precipitated protein was allowed to air dry. Precipitated protein was resuspended in 4 M urea, 50 mM HEPES pH 7.4, followed by dilution to 1 M urea with the addition of 200 mM EPPS, pH 8. Proteins were first digested with LysC (1:50; enzyme:protein) for 12 h at room temperature. The LysC digestion was diluted to 0.5 M urea with 200 mM EPPS pH 8 followed by digestion with trypsin (1:50; enzyme:protein) for 6 h at 37 °C. Sample digests were acidified with formic acid to a pH of 2–3 before desalting using C18 solid phase extraction plates (SOLA, Thermo Fisher Scientific). Desalted peptides were dried in a vacuum-centrifuged and reconstituted in 0.1% formic acid for liquid chromatography–mass spectrometry analysis.
(§2) Data were collected using a TimsTOF Pro2 (Bruker Daltonics) coupled to a nanoElute LC pump (Bruker Daltonics) via a CaptiveSpray nano-electrospray source. Peptides were separated on a reversed-phase C18 column (25 cm × 75 µm inner diameter, […], IonOpticks) containing an integrated captive spray emitter. Peptides were separated using a 50 min gradient of 2–30% buffer B (acetonitrile in 0.1% formic acid) with a flow rate of 250 nl min^−1 and column temperature maintained at 50 °C.
(§3) Data-dependent acquisition (DDA) was performed in Parallel Accumulation-Serial Fragmentation (PASEF) mode to determine effective ion mobility windows for downstream diaPASEF data collection. The ddaPASEF parameters included: 100% duty cycle using accumulation and ramp times of 50 ms each, one Trapped Ion Mobility Spectrometry(TIMS)-MS scan and ten PASEF ramps per acquisition cycle. The TIMS-MS survey scan was acquired between 100 m/z and 1,700 m/z and 1/K0 of 0.7–1.3 V s cm^−2. Precursors with one to five charges were selected, and those that reached an intensity threshold of 20,000 arbitrary units were actively excluded for 0.4 min. The quadrupole isolation width was set to 2 m/z for m/z < 700 and 3 m/z for m/z > 800, with the m/z between 700 m/z and 800 m/z being interpolated linearly. […] To perform diaPASEF, the precursor distribution in the DDA m/z-ion mobility plane was used to design an acquisition scheme for data-independent acquisition (DIA) data collection that included two windows in each 50 ms diaPASEF scan. Data were acquired using 16 of these 25 Da precursor double window scans (creating 32 windows) that covered the diagonal scan line for doubly and triply charged precursors, with singly charged precursors able to be excluded by their position in the m/z-ion mobility plane. These precursor isolation windows were defined between 400 m/z and 1,200 m/z and 1/K0 of 0.7–1.3 V s cm^−2.
(§4) DirectDIA mode includes first extracting the DIA data into a collection of MS2 spectra which are searched using Spectronaut’s Pulsar search engine. The search results are then used to generate a spectral library which is then employed for the targeted analysis of the DIA data. MS/MS spectra were searched against a Swissprot human database (January 2021). Database search criteria largely followed the default settings for directDIA including: tryptic with two missed cleavages, fixed carbomidomethylation of cysteine, and variable oxidation of methionine and acetylation of protein N-termini and precursor Q-value (FDR) cut-off of 0.01. […]

[1] = test system: cyclin K–eGFP degradation reporter; assay: Cyclin K reporter stability analysis (dual-color cyclin K–eGFP reporter); assay type: cell-based, human; conditions: source data sheet correlations; read-out: DC50
Summary of the method: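 First, reporter-bearing HEK293T–Cas9 cells are plated at 1 × 10^6 ml^−1. Next, drug or vehicle is added for 5 h. Finally, geometric-mean eGFP and mCherry signals of round, mCherry-positive cells are measured cytometrically, and their ratio is referenced to the DMSO average.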

CDK13 = molecular target: T1, CDK13 (Homo sapiens, UniProt Q14004+Q16531); assay: Label-free quantitative mass spectrometry in MDA-MB-231 cells, CDK13; assay type: cell-based
T1 construct: endogenous in cells; host or cells: MDA-MB-231
T1 sequence (Q14004 whole entry): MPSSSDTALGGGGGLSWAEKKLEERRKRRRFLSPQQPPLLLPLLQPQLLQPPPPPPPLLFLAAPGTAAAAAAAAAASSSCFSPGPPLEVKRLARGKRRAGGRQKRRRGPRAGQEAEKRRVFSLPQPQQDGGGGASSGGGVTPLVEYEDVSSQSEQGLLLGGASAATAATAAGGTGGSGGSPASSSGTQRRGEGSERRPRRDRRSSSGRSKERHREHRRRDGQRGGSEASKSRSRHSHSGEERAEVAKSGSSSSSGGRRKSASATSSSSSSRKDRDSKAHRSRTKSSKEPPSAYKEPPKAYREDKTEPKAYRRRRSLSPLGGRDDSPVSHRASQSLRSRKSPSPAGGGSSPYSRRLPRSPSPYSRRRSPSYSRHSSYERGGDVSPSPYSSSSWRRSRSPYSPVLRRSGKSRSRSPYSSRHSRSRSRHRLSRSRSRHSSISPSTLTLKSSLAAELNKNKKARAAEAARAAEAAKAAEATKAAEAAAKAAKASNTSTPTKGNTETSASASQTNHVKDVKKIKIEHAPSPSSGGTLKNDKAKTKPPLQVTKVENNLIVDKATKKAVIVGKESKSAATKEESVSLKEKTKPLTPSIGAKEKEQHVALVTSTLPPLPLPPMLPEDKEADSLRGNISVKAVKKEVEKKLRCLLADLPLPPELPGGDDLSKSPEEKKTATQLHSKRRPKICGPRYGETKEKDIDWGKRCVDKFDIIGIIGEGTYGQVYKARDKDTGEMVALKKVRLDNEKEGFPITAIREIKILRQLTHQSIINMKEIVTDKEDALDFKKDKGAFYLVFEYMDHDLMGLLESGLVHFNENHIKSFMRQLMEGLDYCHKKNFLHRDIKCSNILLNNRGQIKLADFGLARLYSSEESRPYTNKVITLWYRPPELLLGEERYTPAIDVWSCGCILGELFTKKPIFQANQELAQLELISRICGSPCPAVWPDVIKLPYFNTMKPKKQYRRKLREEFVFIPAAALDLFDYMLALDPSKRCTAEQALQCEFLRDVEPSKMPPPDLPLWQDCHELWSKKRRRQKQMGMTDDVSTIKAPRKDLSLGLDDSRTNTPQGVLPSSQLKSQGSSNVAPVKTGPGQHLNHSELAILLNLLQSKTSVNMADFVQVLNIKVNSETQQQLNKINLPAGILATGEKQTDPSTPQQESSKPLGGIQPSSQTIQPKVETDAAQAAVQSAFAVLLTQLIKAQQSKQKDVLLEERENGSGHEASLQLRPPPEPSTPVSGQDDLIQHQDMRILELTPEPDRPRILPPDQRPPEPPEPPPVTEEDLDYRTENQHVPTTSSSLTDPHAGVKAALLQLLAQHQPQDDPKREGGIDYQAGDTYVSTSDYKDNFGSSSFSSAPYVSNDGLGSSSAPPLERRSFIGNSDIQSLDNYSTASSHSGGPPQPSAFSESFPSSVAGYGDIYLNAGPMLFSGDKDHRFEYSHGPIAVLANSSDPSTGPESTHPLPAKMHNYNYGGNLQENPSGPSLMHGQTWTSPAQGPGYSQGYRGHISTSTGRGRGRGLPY
T1 sequence (O75909 whole entry partner): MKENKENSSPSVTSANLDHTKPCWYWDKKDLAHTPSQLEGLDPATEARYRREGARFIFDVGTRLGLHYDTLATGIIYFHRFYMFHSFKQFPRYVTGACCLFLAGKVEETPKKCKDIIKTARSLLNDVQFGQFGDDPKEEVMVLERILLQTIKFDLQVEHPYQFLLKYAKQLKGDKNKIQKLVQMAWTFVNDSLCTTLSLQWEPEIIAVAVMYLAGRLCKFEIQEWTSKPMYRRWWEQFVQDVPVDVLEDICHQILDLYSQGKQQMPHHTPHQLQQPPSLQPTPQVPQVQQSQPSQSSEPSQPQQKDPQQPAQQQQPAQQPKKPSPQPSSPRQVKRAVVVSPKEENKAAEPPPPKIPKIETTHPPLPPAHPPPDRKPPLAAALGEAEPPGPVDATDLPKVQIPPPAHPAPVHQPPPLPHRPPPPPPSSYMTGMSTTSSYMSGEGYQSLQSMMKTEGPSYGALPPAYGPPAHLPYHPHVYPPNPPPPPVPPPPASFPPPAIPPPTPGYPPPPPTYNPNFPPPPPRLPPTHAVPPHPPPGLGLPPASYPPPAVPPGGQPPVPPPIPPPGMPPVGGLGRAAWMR
T1 sequence (Q16531 2-1140 limits assumed): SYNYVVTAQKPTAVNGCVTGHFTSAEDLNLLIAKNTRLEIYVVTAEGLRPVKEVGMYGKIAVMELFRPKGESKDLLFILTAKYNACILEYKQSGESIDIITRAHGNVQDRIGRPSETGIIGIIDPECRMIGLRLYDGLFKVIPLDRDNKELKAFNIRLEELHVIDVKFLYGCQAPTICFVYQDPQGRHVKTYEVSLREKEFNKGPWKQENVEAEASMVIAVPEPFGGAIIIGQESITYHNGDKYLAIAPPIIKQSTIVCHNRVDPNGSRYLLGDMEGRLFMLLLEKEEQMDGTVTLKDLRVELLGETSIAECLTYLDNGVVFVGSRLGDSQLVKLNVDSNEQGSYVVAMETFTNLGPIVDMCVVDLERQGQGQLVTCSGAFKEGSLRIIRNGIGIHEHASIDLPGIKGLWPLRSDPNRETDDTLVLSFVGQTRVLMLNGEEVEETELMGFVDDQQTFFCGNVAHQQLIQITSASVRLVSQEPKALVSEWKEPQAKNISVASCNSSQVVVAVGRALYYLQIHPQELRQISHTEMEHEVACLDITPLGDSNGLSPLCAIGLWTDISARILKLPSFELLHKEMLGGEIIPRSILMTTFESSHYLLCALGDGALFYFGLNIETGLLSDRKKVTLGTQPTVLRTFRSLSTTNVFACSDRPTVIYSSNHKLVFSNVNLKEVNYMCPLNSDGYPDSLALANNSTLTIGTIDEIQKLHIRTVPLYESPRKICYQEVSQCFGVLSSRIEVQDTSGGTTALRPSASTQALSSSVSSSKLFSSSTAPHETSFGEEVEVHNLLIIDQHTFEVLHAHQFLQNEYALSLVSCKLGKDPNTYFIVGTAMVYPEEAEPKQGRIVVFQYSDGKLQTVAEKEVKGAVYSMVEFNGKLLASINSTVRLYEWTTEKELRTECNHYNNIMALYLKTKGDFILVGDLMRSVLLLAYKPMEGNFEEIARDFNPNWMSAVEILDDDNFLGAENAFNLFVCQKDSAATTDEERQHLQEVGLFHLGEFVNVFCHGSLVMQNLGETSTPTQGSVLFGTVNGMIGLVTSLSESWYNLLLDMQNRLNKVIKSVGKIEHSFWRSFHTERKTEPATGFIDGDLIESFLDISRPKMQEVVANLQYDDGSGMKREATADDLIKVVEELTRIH
Protocol: as §1, §2, §3, §4

CDK12–cyclin K and DDB1 = molecular target: T2, CDK12–cyclin K and DDB1 (Homo sapiens, UniProt Q16531+Q9NYV4, K965R); assay: TR-FRET ternary complex formation assay (compound titration); assay type: binding; conditions: for TR-FRET signal at compound concentration: replicate titrations
T2 construct: His6–CDK12 (a.a. 713–1,052); full-length or beta-propeller B domain deletion (ΔBPB: a.a. 396–705 deleted) constructs of His6–DDB1ΔBPB, StrepII–Avi–DDB1, or His6–Spy–DDB1; made in house; host or cells: Trichoplusia ni High Five insect cells (baculovirus)
T2 sequence (Q9NYV4 713-1052 K965R): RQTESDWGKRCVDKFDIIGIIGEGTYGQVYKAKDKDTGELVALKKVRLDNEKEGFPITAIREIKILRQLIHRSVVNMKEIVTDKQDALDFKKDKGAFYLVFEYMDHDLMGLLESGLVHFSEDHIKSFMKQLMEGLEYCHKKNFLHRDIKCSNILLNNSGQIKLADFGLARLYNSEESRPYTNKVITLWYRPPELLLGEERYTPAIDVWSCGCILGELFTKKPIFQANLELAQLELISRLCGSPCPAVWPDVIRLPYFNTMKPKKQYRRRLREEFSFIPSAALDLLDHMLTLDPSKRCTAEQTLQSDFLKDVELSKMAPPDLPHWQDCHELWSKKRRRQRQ
T2 sequence (O75909 1-267 partner): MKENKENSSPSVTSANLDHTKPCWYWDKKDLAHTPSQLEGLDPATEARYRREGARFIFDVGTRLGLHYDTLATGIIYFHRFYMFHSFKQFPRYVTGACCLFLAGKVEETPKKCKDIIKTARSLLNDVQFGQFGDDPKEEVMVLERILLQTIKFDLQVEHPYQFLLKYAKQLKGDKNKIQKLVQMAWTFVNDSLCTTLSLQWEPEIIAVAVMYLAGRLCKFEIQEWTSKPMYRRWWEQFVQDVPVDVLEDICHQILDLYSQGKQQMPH
T2 sequence (Q16531 whole entry): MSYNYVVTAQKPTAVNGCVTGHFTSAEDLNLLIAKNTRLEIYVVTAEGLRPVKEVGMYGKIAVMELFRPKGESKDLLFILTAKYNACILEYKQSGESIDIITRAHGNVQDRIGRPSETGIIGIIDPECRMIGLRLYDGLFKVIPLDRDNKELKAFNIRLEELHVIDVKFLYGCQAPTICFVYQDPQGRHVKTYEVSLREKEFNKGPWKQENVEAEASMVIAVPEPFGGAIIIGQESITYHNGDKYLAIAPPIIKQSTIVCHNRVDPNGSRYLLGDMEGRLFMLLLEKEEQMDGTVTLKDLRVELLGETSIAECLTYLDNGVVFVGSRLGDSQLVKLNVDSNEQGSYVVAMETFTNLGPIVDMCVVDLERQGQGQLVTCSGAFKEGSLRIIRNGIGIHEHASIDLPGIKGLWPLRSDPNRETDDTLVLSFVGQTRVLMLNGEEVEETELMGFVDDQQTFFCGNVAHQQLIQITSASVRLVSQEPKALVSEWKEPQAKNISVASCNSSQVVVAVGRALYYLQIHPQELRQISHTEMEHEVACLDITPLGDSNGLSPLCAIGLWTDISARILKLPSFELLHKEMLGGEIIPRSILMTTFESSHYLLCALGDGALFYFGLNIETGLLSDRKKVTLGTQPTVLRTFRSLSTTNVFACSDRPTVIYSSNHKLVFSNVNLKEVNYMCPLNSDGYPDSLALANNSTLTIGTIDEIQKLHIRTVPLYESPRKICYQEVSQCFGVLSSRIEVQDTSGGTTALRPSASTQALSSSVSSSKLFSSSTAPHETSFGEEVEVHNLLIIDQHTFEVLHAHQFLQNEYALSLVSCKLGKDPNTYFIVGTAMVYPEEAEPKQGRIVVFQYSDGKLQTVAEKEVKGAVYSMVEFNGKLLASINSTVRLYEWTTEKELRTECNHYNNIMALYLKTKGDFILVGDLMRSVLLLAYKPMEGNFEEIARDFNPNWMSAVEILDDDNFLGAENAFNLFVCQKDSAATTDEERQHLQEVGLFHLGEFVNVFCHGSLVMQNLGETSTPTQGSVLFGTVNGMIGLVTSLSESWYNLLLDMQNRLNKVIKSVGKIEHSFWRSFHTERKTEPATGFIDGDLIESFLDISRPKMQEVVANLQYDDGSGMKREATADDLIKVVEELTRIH
Summary of the method: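 Read-out used a 70 μs delay to cut background fluorescence; TR-FRET signal taken as the 520 nm/490 nm emission ratio.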

CDK12 = molecular target: T3, CDK12 (Homo sapiens, UniProt Q16531+Q9NYV4); assay: Label-free quantitative mass spectrometry in MDA-MB-231 cells, CDK12; assay type: cell-based
T3 construct: endogenous in cells; host or cells: MDA-MB-231
Protocol: as §1, §2, §3, §4

[2] = label-free quantitative MS, replicate values
[3] = normalised to DMSO = 1, replicate values

CC[C@H](CO)Nc1nc(NCCCc2cccc(C)c2)c2ncn(C(C)C)c2n1 [DS30]
EC50 (HEK293T cells; Homo sapiens, HEK-293T, HEK293T viability, 72 h, compound alone, read-out: Cellular assays EC50): 451 nM | Toxicity rescue (HEK293T cells; MLN4924-mediated cytotoxicity rescue, 10 µM used where n.d.): 496% | cyclin K abundance (label-free MS) (cyclin K; individual replicates, sheet EDF7): 199.985 and 224.267 | cyclin K abundance (label-free MS) (cyclin K; [2]): 199.985 and 224.267 | CCNK peptide count (DMSO-normalised) (cyclin K; [3]): 0.1093 and 0.1247 | average CCNK peptide count (cyclin K; sheet EDF7): 212.126 | DC50 [1]: 78 nM | CDK13 peptide count (CDK13; [2]): 256.293 and 280.454 | CDK13 peptide count (DMSO-normalised) (CDK13; [3]): 0.3813 and 0.431 | TR-FRET signal at compound concentration (CDK12–cyclin K and DDB1; compound concentration 0.468 nM): 0.2538 and 0.2487 and 0.2092 | TR-FRET signal at compound concentration (CDK12–cyclin K and DDB1; compound concentration 2.16 nM): 0.3096 and 0.3093 and 0.2708 | TR-FRET signal at compound concentration (CDK12–cyclin K and DDB1; compound concentration 3.6 nM): 0.4411 and 0.4525 and 0.4039 | TR-FRET signal at compound concentration (CDK12–cyclin K and DDB1; compound concentration 7.92001 nM): 0.6962 and 0.7001 and 0.6519 | TR-FRET signal at compound concentration (CDK12–cyclin K and DDB1; compound concentration 15.84 nM): 1.209 and 1.183 and 1.188 | TR-FRET signal at compound concentration (CDK12–cyclin K and DDB1; compound concentration 30.96 nM): 1.971 and 1.9872 and 1.9274 | TR-FRET signal at compound concentration (CDK12–cyclin K and DDB1; compound concentration 62.6401 nM): 3.092 and 3.095 and 2.939 | TR-FRET signal at compound concentration (CDK12–cyclin K and DDB1; compound concentration 125.28 nM): 3.635 and 3.6 and 3.694 | TR-FRET signal at compound concentration (CDK12–cyclin K and DDB1; compound concentration 244.8 nM): 4.013 and 4.0411 | TR-FRET signal at compound concentration (CDK12–cyclin K and DDB1; compound concentration 993.601 nM): 3.909 and 4.092 and 4.233 | TR-FRET signal at compound concentration (CDK12–cyclin K and DDB1; compound concentration 2001.6 nM): 4.11 and 4.134 and 4.272 | EC50 (CDK12–cyclin K and DDB1; in vitro complex formation, 50 nM CDK12–cyclin K, 100 nM DDB1, text and figures, read-out: TR-FRET EC50): 35 ± 1 nM | EC50 (CDK12–cyclin K and DDB1; sheet MOESM7, read-out: log TR-FRET EC50 (converted)): 34.8 nM | EC50 (CDK12–cyclin K and DDB1; source data sheet correlations, read-out: TR-FRET EC50): 34.8 nM | CDK12 peptide count (CDK12; [2]): 530.324 and 557.769 | CDK12 peptide count (DMSO-normalised) (CDK12; [3]): 0.5892 and 0.5761

From article PMC10746543, “Design principles for cyclin K molecular glue degraders” (Nature Chemical Biology, 2023)
